# In patent US5834500A, “Sulfur-containing heterocyclic bradykinin antagonists, process for their preparation, and their use” (Hoechst Aktiengesellschaft, priority 1996, dated 1998):
# How the values were obtained:
# [1] = system: isolated guinea pig pulmonary artery; assay: bradykinin-induced contraction of isolated guinea pig pulmonary artery; details: Cavia porcellus, 10 min; isolated vessel strip, contraction by 2×10^-7 mol/l bradykinin, 10 minutes exposure; read-out: antagonistic effect expressed as IC50-value on the guinea pig pulmonary artery
# Procedure: For testing the novel compounds on the isolated pulmonary artery, guinea pigs (Dunkin Hartley) having a weight of 400-450 g are killed by a blow to the neck.
# The thorax is opened and the pulmonary artery is carefully dissected out. The surrounding tissue is carefully removed and the pulmonary artery is cut open spirally at an angle of 45°.
# The blood vessel strip, which is 2.5 cm long and 3-4 mm wide, is fastened in a 10 ml-capacity organ bath which is filled with Ringer solution. […]
# 95% O2 and 5% CO2 is bubbled through the solution, which is warmed to 37° C. The pH is 7.4 and the initial load on the vessel strip is 1.0 g.
# The isotonic contraction changes are detected with a lever attachment and a high frequency modem (distance measuring device) from Hugo Sachs and registered on a potentiometric recorder (BEC, Goerz Metrawatt SE 460).
# The experiment is started after 1 hour of equilibration. Once the maximum sensitivity of the vessel strips to 2×10^-7 mol/l bradykinin has been reached--bradykinin causes the vessel strips to contract--the test compounds, at doses of 5×10^-8 -1×10^-5 mol/l, are allowed to exert their effect for 10 minutes in each case and, after bradykinin has been added once again, the decrease in the effect of bradykinin is compared with the control.
# bradykinin B2 receptor = biological target: T1, bradykinin B2 receptor (Cavia porcellus, UniProt O70526); assay: binding to the bradykinin B2 receptor of guinea pig ileum (3H-bradykinin competition); details: guinea pig ileum membranes, 3H-bradykinin 0.25 to 0.3 nmol/l; read-out: antagonistic effect expressed as IC50-value on the guinea pig B2 receptor
# T1 construct: from tissue; host or cells: guinea pig ileum membranes
# T1 sequence (O70526 1-372): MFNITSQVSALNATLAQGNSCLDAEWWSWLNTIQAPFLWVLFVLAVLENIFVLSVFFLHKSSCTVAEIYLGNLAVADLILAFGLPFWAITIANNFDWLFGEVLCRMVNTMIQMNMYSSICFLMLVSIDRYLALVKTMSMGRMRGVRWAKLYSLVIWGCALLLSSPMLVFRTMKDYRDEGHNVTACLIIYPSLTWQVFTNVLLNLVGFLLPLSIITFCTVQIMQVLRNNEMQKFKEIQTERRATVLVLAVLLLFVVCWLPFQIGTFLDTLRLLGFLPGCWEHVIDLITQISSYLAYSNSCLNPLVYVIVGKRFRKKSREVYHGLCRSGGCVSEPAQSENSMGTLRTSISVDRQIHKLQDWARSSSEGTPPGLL
# Procedure: The method of measuring binding to the bradykinin B2 receptor of guinea pig ileum is described below (R. B. Innis et al., Proc. NatI. Acad. Sci. USA; 17 (1981) 2630): […] Ligand: ^3 H-BRADYKININ (from NEN Du Pont) 2. Buffer mixtures: a) TES buffer: 25 mM TES (SIGMA, Cat. No.: T-4152) […] Cat. No.: P-9375) b) Incubation buffer: 25 mM TES (SIGMA; Cat. No.: T-4152) […] Cat. No.: P-9375) […] Cat. No.: A-7906) 140 μg/ml bacitracin (SIGMA; Cat. No.: B-0125) […] Cat. No.: D-0632) […] Both buffers are adjusted to pH 6.8 with 5 molar NaOH. 3. Membrane preparation: Guinea pig ilea are roughly freed of intestinal contents by carefully smoothing them out and are cleansed in 0.9% NaCl solution. The approx. 2 cm-long ilea pieces are transferred into ice-cold TES buffer (approx. 1 g/10 ml) and homogenized with an Ultraturrax for approx. 30 sec. in an ice bath. The homogenate is then filtered through 3 layers of gauze and the filtrate is centrifuged at 50,000 g for 10 minutes. The supernatant is discarded and the pellet is rehomogenized in the same volume of TES buffer and centrifuged once again at 50,000 g for 10 minutes. The pellet is rehomogenized in incubation buffer (approx. 1 g/5 ml) and frozen down at -70° C., in 2 ml aliquots, in cryotubes. The protein concentration of the finished membrane suspension is determined by the LOWRY method and should be approx. 15 μg/100 μl. 4. Binding test: All the incubations are carried out, at room temperature for 60 minutes, in a 200 μl volume on microtiter plates (96×300 μl). All the mixtures are in incubation buffer. For this, 50 μl of the radioligand, 50 μl of the preparation to be tested and 100 μl of the membrane suspension are pipetted consecutively into the wells of the microtiter plate. b) Competition experiments (IC50): A fixed quantity of the radioactive ligand (from 0.25 to 0.3 nmol/l ^3 H-bradykinin) and different concentrations of the unlabeled agonists or antagonists are employed for this purpose. 50 μl of the preparations or the standards to be tested, are added, in concentrations of from 10^-5 to 10^-10 mol/l, to in each case 50 μl of the ^3 H-bradykinin solution and the reaction is started by adding 100 μl of membrane suspension. […] As a rule, the preparations which are to be tested for competition are dissolved, at a concentration of 1 mmol/l, in dimethyl sulfoxide (DMSO) and subsequently subjected to further dilution with DMSO. This solution is then diluted 1:25 with incubation buffer. […] The filters, which are still moist, are punched out into mini scintillation vials, which are filled with 3 ml of scintillator. After having been left to soak for approx. 12 hours, the samples are shaken up briefly and measured in a beta counter. c) Screening: […] 4. Evaluation: The evaluation is effected by means of the LIGAND program package (McPherrson, Minson & Rodbard, Marketing: Elsevier-BIOSOFT), which performs the necessary calculations for determining IC50 and Ki values. This program also performs graphic depictions of the saturation and displacement curves and also SCATCHARD plots, HILL plots or HOFSTEE plots.
Structure (SMILES),IC50 [1] [µM],IC50 (bradykinin B2 receptor) [µM]
Cc1nc2c(OCc3c(Cl)ccc(N(C)C(=O)CNC(=O)COc4ccc(OC(F)(F)F)cc4)c3Cl)cccc2s1 [Example 37],< 1,< 0.1
C=C/C=C/C(=O)NCC(=O)N(C)c1ccc(Cl)c(COc2cccc3sc(C)nc23)c1Cl [Example 6],< 1,< 0.1
COc1cccc(/C=C/C(=O)NCC(=O)N(C)c2ccc(Cl)c(COc3cccc4sc(C)nc34)c2Cl)c1 [Example 11],< 1,< 0.1

# Second part, the compound after the results:
IC50 [1] [µM],IC50 (bradykinin B2 receptor) [µM],Structure (SMILES)
< 1,< 0.1,Cc1ccc(/C=C/C(=O)NCC(=O)N(C)c2ccc(Cl)c(COc3cccc4sc(C)nc34)c2Cl)cc1 [Example 23]
< 1,< 0.1,Cc1nc2c(OCc3c(Cl)ccc(N(C)C(=O)CNC(=O)/C=C/c4ccco4)c3Cl)cccc2s1 [Example 12]
< 1,< 0.1,Cc1nc2c(OCc3c(Cl)ccc(N(C)C(=O)CNC(=O)/C=C/c4ccc(C(F)(F)F)cc4)c3Cl)cccc2s1 [Example 3]
